“Also recorded” adds a separate entry of the source.
Legend:
[1] = system: IDH1 wildtype U87MG cells; assay: FRET imaging of D2HGlo cellular probes in IDH1 wildtype glioma cells; format: cell-based, human; conditions: for acute change of Cyto-D2HGlo FRET ratio: approximately 5.5 min
[2] = system: IDH1-R132H mutant U87MG cells; assay: FRET imaging of D2HGlo cellular probes in IDH1 mutant glioma cells; format: cell-based, human
[3] = system: IDH1-R132H mutant U87MG cells; assay: D-2-HG in cell culture supernatant measured with D2HGlo, mutant cells; format: cell-based, human; conditions: 48 h
[4] = system: mutant IDH1; conditions: newly diagnosed and advanced cancer; cited from earlier work
[5] = target: D2HGlo (Achromobacter denitrificans, UniProt A0A6N0JVZ6); assay: Ligand binding and selectivity of purified D2HGlo; conditions: for response of D2HGlo (FRET ratio) to metabolite: concentrations up to 100 µM
Chain of D2HGlo (A0A6N0JVZ6 1-238, other chains not shown): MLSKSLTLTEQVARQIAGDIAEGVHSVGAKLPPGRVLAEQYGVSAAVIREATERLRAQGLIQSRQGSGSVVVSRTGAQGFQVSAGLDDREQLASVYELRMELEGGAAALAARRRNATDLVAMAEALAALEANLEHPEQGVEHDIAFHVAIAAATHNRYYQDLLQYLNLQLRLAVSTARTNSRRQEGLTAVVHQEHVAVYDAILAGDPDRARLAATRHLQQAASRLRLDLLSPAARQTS

Structure (SMILES): O=CC[C@@H](O)[C@H](O)[C@H](O)CO [2-DG, 2-Deoxy-D-glucose]
- acute change of Cyto-D2HGlo FRET ratio ([1]; 2-DG 10 mM): unaffected
- acute change of Cyto-D2HGlo FRET ratio ([2]; 2-DG 10 mM, approximately 5.5 min): reduced the FRET ratio
- concentration of D-2-HG in the supernatant ([3]; 2-DG 10 mM): reduced to levels comparable to untreated wildtype cells

Structure (SMILES): N#Cc1ccnc(N2C(=O)CC[C@H]2C(=O)N(c2cncc(F)c2)[C@H](C(=O)NC2CC(F)(F)C2)c2ccccc2Cl)c1 [AG-120]
- D-2-HG levels (FRET ratio) ([1]; AG-120 3 µM, 48 h): no effect
- average FRET ratio of Cyto-, Nuc- and Mito-D2HGlo (D-2-HG level) ([2]; AG-120 3 µM, 48 h): reduced the average FRET ratio in all three compartments in IDH1 mutant cells to levels comparable with IDH1 wildtype cells; also recorded: decrease to levels resembling those found in IDH1 wildtype cells
- acute change of Cyto-D2HGlo FRET ratio ([2]; AG-120 10 μM, 15 min following drug addition): did not result in acute changes
- D-2-HG concentration of supernatant ([3]; AG-120 3 µM): 2.88 ± 0.59 µM
- 2-HG levels in patients [4]: reduction of 2-HG to levels resembling those seen in healthy populations

Structure (SMILES): CN(C)c1ccc(C2Nc3ccc4ccccc4c3C3=C2C(=O)CC(C)(C)C3)cc1Br (stereo not drawn) [Compound 968]
- acute change of Cyto-D2HGlo FRET ratio ([1]; Compound 968 1 µM): did not elicit any changes
- acute change of Cyto-D2HGlo FRET ratio ([2]; Compound 968 1 µM, approximately 5.5 min): did not elicit any changes
- D-2-HG accumulation in cell culture supernatants ([3]; Compound 968 1 µM, wildtype and mutant cells (Fig. 5d)): nor did it effect D-2-HG accumulation

Structure (SMILES): O=C(O)CN(CCN(CC(=O)O)CC(=O)O)CC(=O)O [EDTA]
- effect on D-2-HG induced FRET response of D2HGlo ([5]; 1 mM EDTA in titration buffer): prevents D-2-HG induced changes to FRET ratio

Structure (SMILES): N[C@@H](CCC(=O)O)C(=O)O [Glutamate, L-glutamic acid]
- response of D2HGlo (FRET ratio) to metabolite [5]: did not respond

Structure (SMILES): C[C@H](O)C(=O)[O-].[Na+] [Lactate, sodium L-lactate]
- response of D2HGlo (FRET ratio) to metabolite [5]: did not respond

Structure (SMILES): CC(=O)C(=O)O [Pyruvate, Sodium pyruvate]
- response of D2HGlo (FRET ratio) to metabolite [5]: did not respond

— paper PMC11909988 (BMC Cancer, 2025)
